Bridge positions count the residues as written; N and C are the ends. Square brackets hold non-standard residues; d marks the D form. Peptide text beside a SMILES is read from it. 1Nal = N[C@@H](Cc1cccc2ccccc12)C(=O)O A value given as a limit tells only on which side of the number the result lay.

In general, IC50 refers to the concentration needed to halve the response being measured. The low end stands for inhibition by little substance, the high end for a need for much substance.

Experiment [1] has as its target T1, Potassium voltage-gated channel subfamily A member 3 (Homo sapiens, UniProt P22001). Format: cell-based, CHO-K1.
The target of experiment [2] is T1, Potassium voltage-gated channel subfamily A member 3. Description: cell-based. Set-up: species or system Blood.
The target is the same in experiment [3]. Set-up: species or system Blood.

T1 sequence (P22001 whole entry): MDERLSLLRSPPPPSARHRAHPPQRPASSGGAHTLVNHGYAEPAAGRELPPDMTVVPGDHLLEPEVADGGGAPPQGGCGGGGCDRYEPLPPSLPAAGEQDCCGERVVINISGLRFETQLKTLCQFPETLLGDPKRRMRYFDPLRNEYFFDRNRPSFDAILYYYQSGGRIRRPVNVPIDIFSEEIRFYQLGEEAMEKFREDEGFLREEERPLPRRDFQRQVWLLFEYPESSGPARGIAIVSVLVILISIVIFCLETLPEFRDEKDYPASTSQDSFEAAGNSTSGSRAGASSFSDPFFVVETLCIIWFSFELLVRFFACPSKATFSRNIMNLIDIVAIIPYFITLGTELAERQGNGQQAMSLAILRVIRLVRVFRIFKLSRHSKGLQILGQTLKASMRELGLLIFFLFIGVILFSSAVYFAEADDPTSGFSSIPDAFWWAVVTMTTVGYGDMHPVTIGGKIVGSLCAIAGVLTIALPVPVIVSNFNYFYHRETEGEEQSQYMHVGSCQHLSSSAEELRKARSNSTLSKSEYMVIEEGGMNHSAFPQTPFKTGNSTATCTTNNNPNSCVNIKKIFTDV

For the compound `CC[C@H](C)[C@@H]1NC(=O)[C@@H](NC(=O)[C@H](CO)NC(=O)[C@@H](N)CCCNC(=N)N)CSSC[C@@H](C(=O)O)NC(=O)[C@H]([C@@H](C)O)NC(=O)CNC(=O)[C@@H]2CSSC[C@@H]3NC(=O)[C@H](CCC(N)=O)NC(=O)[C@H](Cc4ccccc4)NC(=O)[C@H](C)NC(=O)[C@H]([C@@H](C)O)NC(=O)[C@H](CSSC[C@H](NC(=O)[C@H](Cc4ccccc4)NC(=O)[C@H](CO)NC(=O)[C@H](CC(C)C)NC(=O)[C@H](CCCNC(=N)N)NC(=O)[C@H](Cc4ccc(O)cc4)NC(=O)[C@H](CCCCN)NC(=O)[C@H](CCSC)NC(=O)[C@H](CO)NC(=O)[C@H](Cc4cnc[nH]4)NC(=O)[C@H](CCCCN)NC3=O)C(=O)N[C@@H](CCCNC(=N)N)C(=O)N[C@@H](CCCCN)C(=O)N[C@@H]([C@@H](C)O)C(=O)N2)NC(=O)[C@H](CCCNC(=N)N)NC(=O)[C@H](CO)NC(=O)[C@H](CCCCN)NC(=O)[C@@H]2CCCN2C(=O)[C@H]([C@@H](C)CC)NC(=O)[C@H]([C@@H](C)O)NC(=O)[C@H](Cc2cccc3ccccc23)NC1=O`, the 50% inhibitory concentration (IC50) in experiment [1] was more than 3.33 nM; in experiment [2], 70.4 nM; in experiment [3], more than 31.9 nM.

Take `CC[C@H](C)[C@@H]1NC(=O)[C@@H](NC(=O)[C@H](CO)NC(=O)[C@@H](N)CCCNC(=N)N)CSSC[C@@H](C(=O)O)NC(=O)[C@H]([C@@H](C)O)NC(=O)CNC(=O)[C@@H]2CSSC[C@@H]3NC(=O)[C@H](CCC(N)=O)NC(=O)[C@H](Cc4ccccc4)NC(=O)[C@H](C)NC(=O)[C@H]([C@@H](C)O)NC(=O)[C@H](CSSC[C@H](NC(=O)[C@H](Cc4ccccc4)NC(=O)[C@H](CO)NC(=O)[C@H](CC(C)C)NC(=O)[C@H](CCCNC(=N)N)NC(=O)[C@H](Cc4ccc(O)cc4)NC(=O)[C@H](CCCCN)NC(=O)[C@H](CCSC)NC(=O)[C@H](CO)NC(=O)[C@H](CCCNC(=N)N)NC(=O)[C@H](CCCCN)NC3=O)C(=O)N[C@@H](CCCNC(=N)N)C(=O)N[C@@H](CCCCN)C(=O)N[C@@H]([C@@H](C)O)C(=O)N2)NC(=O)[C@H](CCCNC(=N)N)NC(=O)[C@H](CO)NC(=O)[C@H](CCCCN)NC(=O)[C@@H]2CCCN2C(=O)[C@H]([C@@H](C)CC)NC(=O)[C@H]([C@@H](C)O)NC(=O)[C@H](CC(=O)O)NC1=O`: the IC50 in experiment [1] is 0.095 nM; in experiment [2], 0.114 nM; in experiment [3] it was 0.282 nM.

For the compound `CC[C@H](C)[C@@H]1NC(=O)[C@@H](NC(=O)[C@H](CO)NC(=O)[C@@H](N)CCCNC(=N)N)CSSC[C@@H](C(=O)O)NC(=O)[C@H]([C@@H](C)O)NC(=O)CNC(=O)[C@@H]2CSSC[C@@H]3NC(=O)[C@H](CCC(N)=O)NC(=O)[C@H](Cc4ccccc4)NC(=O)[C@H](Cc4cccc5ccccc45)NC(=O)[C@H]([C@@H](C)O)NC(=O)[C@H](CSSC[C@H](NC(=O)[C@H](Cc4ccccc4)NC(=O)[C@H](CO)NC(=O)[C@H](CC(C)C)NC(=O)[C@H](CCCNC(=N)N)NC(=O)[C@H](Cc4ccc(O)cc4)NC(=O)[C@H](CCCCN)NC(=O)[C@H](CCSC)NC(=O)[C@H](CO)NC(=O)[C@H](Cc4cnc[nH]4)NC(=O)[C@H](CCCCN)NC3=O)C(=O)N[C@@H](CCCNC(=N)N)C(=O)N[C@@H](CCCCN)C(=O)N[C@@H]([C@@H](C)O)C(=O)N2)NC(=O)[C@H](CCCNC(=N)N)NC(=O)[C@H](CO)NC(=O)[C@H](CCCCN)NC(=O)[C@@H]2CCCN2C(=O)[C@H]([C@@H](C)CC)NC(=O)[C@H]([C@@H](C)O)NC(=O)[C@H](Cc2cccc3ccccc23)NC1=O` (H-RSCI[1Nal]TIPKSRCT[1Nal]FQCKHSMKYRLSFCRKTCGTC-OH; disulfide 3-35, 12-28, 17-32), the IC50 in experiment [1] stood at 0.039 nM; in experiment [2], 0.089 nM; in experiment [3] it was 0.11 nM.

Consider `CC[C@H](C)[C@@H]1NC(=O)[C@@H](NC(=O)[C@H](CO)NC(=O)[C@@H](N)CCCNC(=N)N)CSSC[C@@H](C(=O)O)NC(=O)[C@H]([C@@H](C)O)NC(=O)CNC(=O)[C@@H]2CSSC[C@@H]3NC(=O)[C@H](CCC(N)=O)NC(=O)[C@H](Cc4ccccc4)NC(=O)[C@H](C)NC(=O)[C@H]([C@@H](C)O)NC(=O)[C@H](CSSC[C@H](NC(=O)[C@H](Cc4ccccc4)NC(=O)[C@H](CO)NC(=O)[C@H](CC(C)C)NC(=O)[C@H](CCCNC(=N)N)NC(=O)[C@H](Cc4ccc(O)cc4)NC(=O)[C@H](CCCCN)NC(=O)[C@H](CCSC)NC(=O)[C@H](CO)NC(=O)[C@H](Cc4cnc[nH]4)NC(=O)[C@H](CCCCN)NC3=O)C(=O)N[C@@H](CCCNC(=N)N)C(=O)N[C@@H](CCCCN)C(=O)N[C@@H]([C@@H](C)O)C(=O)N2)NC(=O)[C@H](CCCNC(=N)N)NC(=O)[C@H](CCCNC(=N)N)NC(=O)[C@H](CCCCN)NC(=O)[C@@H]2CCCN2C(=O)[C@H]([C@@H](C)CC)NC(=O)[C@H]([C@@H](C)O)NC(=O)[C@H](CC(=O)O)NC1=O`, for which the IC50 in experiment [1] is 0.073 nM; in experiment [2] it was 0.072 nM; in experiment [3], 0.129 nM.

`CC[C@H](C)[C@@H]1NC(=O)[C@H]([C@@H](C)O)NC(=O)[C@H](CC(=O)O)NC(=O)[C@H](Cc2cccc3ccccc23)NC(=O)[C@@H](NC(=O)[C@H](CO)NC(=O)[C@@H](N)CCCNC(=N)N)CSSC[C@@H](C(=O)O)NC(=O)[C@H]([C@@H](C)O)NC(=O)CNC(=O)[C@@H]2CSSC[C@@H]3NC(=O)[C@H](CCC(N)=O)NC(=O)[C@H](Cc4ccccc4)NC(=O)[C@H](C)NC(=O)[C@H]([C@@H](C)O)NC(=O)[C@H](CSSC[C@H](NC(=O)[C@H](Cc4ccccc4)NC(=O)[C@H](CO)NC(=O)[C@H](CC(C)C)NC(=O)[C@H](CCCNC(=N)N)NC(=O)[C@H](Cc4ccc(O)cc4)NC(=O)[C@H](CCCCN)NC(=O)[C@H](CCSC)NC(=O)[C@H](CO)NC(=O)[C@H](Cc4cnc[nH]4)NC(=O)[C@H](CCCCN)NC3=O)C(=O)N[C@@H](CCCNC(=N)N)C(=O)N[C@@H](CCCCN)C(=O)N[C@@H]([C@@H](C)O)C(=O)N2)NC(=O)[C@H](CCCNC(=N)N)NC(=O)[C@H](CO)NC(=O)[C@H](CCCCN)NC(=O)[C@@H]2CCCN2C1=O`: the half-inhibitory concentration (IC50) in experiment [1] was determined as 0.154 nM; in experiment [2] it was 0.274 nM; in experiment [3] it was 0.318 nM.

For the compound `CC[C@H](C)[C@@H]1NC(=O)[C@@H](NC(=O)[C@H](CO)NC(=O)[C@@H](N)CCCNC(=N)N)CSSC[C@@H](C(=O)O)NC(=O)[C@H]([C@@H](C)O)NC(=O)CNC(=O)[C@@H]2CSSC[C@@H]3NC(=O)[C@H](CCC(N)=O)NC(=O)[C@H](Cc4ccccc4)NC(=O)[C@H](C)NC(=O)[C@H]([C@@H](C)O)NC(=O)[C@H](CSSC[C@H](NC(=O)[C@H](Cc4ccccc4)NC(=O)[C@H](CO)NC(=O)[C@H](CC(C)C)NC(=O)[C@H](CCCNC(=N)N)NC(=O)[C@H](Cc4ccc(O)cc4)NC(=O)[C@H](CCC(=O)O)NC(=O)[C@H](CCSC)NC(=O)[C@H](CO)NC(=O)[C@H](Cc4cnc[nH]4)NC(=O)[C@H](CCCCN)NC3=O)C(=O)N[C@@H](CCCNC(=N)N)C(=O)N[C@@H](CCCCN)C(=O)N[C@@H]([C@@H](C)O)C(=O)N2)NC(=O)[C@H](CCCNC(=N)N)NC(=O)[C@H](CO)NC(=O)[C@H](CCCCN)NC(=O)[C@@H]2CCCN2C(=O)[C@H]([C@@H](C)CC)NC(=O)[C@H]([C@@H](C)O)NC(=O)[C@H](CC(=O)O)NC1=O`, the concentration for half-maximal inhibition (IC50) was more than 3.33 nM in experiment [1], more than 100 nM in experiment [2] and more than 100 nM in experiment [3].

As for `CC[C@H](C)[C@@H]1NC(=O)[C@@H](NC(=O)[C@H](CO)NC(=O)[C@@H](N)CCCNC(=N)N)CSSC[C@@H](C(=O)O)NC(=O)[C@H]([C@@H](C)O)NC(=O)CNC(=O)[C@@H]2CSSC[C@@H]3NC(=O)[C@H](CCC(N)=O)NC(=O)[C@H](Cc4ccccc4)NC(=O)[C@H](C)NC(=O)[C@H]([C@@H](C)O)NC(=O)[C@H](CSSC[C@H](NC(=O)[C@H](Cc4ccccc4)NC(=O)[C@H](CO)NC(=O)[C@H](CC(C)C)NC(=O)[C@H](CCCNC(=N)N)NC(=O)[C@H](Cc4ccc(O)cc4)NC(=O)[C@H](CCCCN)NC(=O)[C@H](CCSC)NC(=O)[C@H](Cc4cccc5ccccc45)NC(=O)[C@H](Cc4cnc[nH]4)NC(=O)[C@H](CCCCN)NC3=O)C(=O)N[C@@H](CCCNC(=N)N)C(=O)N[C@@H](CCCCN)C(=O)N[C@@H]([C@@H](C)O)C(=O)N2)NC(=O)[C@H](CCCNC(=N)N)NC(=O)[C@H](CO)NC(=O)[C@H](CCCCN)NC(=O)[C@@H]2CCCN2C(=O)[C@H]([C@@H](C)CC)NC(=O)[C@H]([C@@H](C)O)NC(=O)[C@H](CC(=O)O)NC1=O`, the IC50 in experiment [1] is more than 3.33 nM; in experiment [2], more than 100 nM; in experiment [3] it was more than 100 nM.

Take `CC[C@H](C)[C@@H]1NC(=O)[C@@H](NC(=O)[C@H](CO)NC(=O)[C@@H](N)CCCNC(=N)N)CSSC[C@@H](C(=O)O)NC(=O)[C@H]([C@@H](C)O)NC(=O)CNC(=O)[C@@H]2CSSC[C@@H]3NC(=O)[C@H](CCC(N)=O)NC(=O)[C@H](Cc4ccccc4)NC(=O)[C@H](C)NC(=O)[C@H]([C@@H](C)O)NC(=O)[C@H](CSSC[C@H](NC(=O)[C@H](Cc4ccccc4)NC(=O)[C@H](CO)NC(=O)[C@H](CC(C)C)NC(=O)[C@H](CCCNC(=N)N)NC(=O)[C@H](Cc4ccc(O)cc4)NC(=O)[C@H](CCCCN)NC(=O)[C@H](CCSC)NC(=O)[C@H](CO)NC(=O)[C@H](Cc4c[nH]cn4)NC(=O)[C@H](CCCCN)NC3=O)C(=O)N[C@@H](CCCNC(=N)N)C(=O)N[C@@H](CCCCN)C(=O)N[C@@H]([C@@H](C)O)C(=O)N2)NC(=O)[C@H](CCCNC(=N)N)NC(=O)[C@H](CO)NC(=O)[C@H](CCCCN)NC(=O)[C@@H]2CCCN2C(=O)[C@H]([C@@H](C)CC)NC(=O)[C@H](CCCCN)NC(=O)[C@H](CC(=O)O)NC1=O`: the figures for the IC50 in experiment [1], in experiment [2] and in experiment [3] were 0.129 nM, 0.117 nM and 0.21 nM, respectively.

Values taken from ChEMBL document CHEMBL3608278 (J Med Chem, 2015).
